Laboratory results published in the OligoGym collection.
Where “and” joins values, the source holds several entries; their conditions need not be identical. Identical values can stand only once. HELM strings list units from the 5' end as sugar, base in round brackets, then linkage (d deoxyribose, r ribose, m 2'-O-methyl, p phosphodiester). Strings are as the collection lists them, not checked against the first reports. ss, as = sense and antisense strand; [lna] = locked nucleic acid (LNA); [una] = unlocked nucleic acid; [s4r] = 4'-thioribose; [fl2r] = 2'-fluoro

Conditions: siRNA
Note: test system not given here.

Substance: RNA1{r(C)p.r(G)p.r(U)p.r(A)p.r(C)p.r(G)p.r(C)p.r(G)p.r(G)p.r(A)p.r(A)p.r(U)p.r(A)p.r(C)p.r(U)p.r(U)p.r(C)p.r(G)p.r(A)p.r(T)p.r(T)}|RNA2{[s4r](U)p.[s4r](C)p.r(G)p.r(A)p.r(A)p.r(G)p.r(U)p.r(A)p.r(U)p.r(U)p.r(C)p.r(C)p.r(G)p.r(C)p.r(G)p.r(U)p.r(A)p.[s4r](C)p.[s4r](G)p.r(T)p.r(T)}$$$RNA1{StrandType:ss}|RNA2{StrandType:as}$
- target mRNA knockdown: 88.8%

Substance: RNA1{r(G)p.r(G)p.r(A)p.r(A)p.r(G)p.r(U)p.r(C)p.r(C)p.m(A)p.r(C)p.r(C)p.r(U)p.r(U)p.r(C)p.r(U)p.r(C)p.r(C)p.r(G)p.r(A)p.r(T)p.r(T)}|RNA2{r(U)p.r(C)p.r(G)p.r(G)p.r(A)p.r(G)p.r(A)p.r(A)p.r(G)p.r(G)p.m(U)p.r(G)p.r(G)p.r(A)p.r(C)p.r(U)p.r(U)p.r(C)p.r(C)p.r(T)p.r(T)}$$$RNA1{StrandType:ss}|RNA2{StrandType:as}$
- target mRNA knockdown: 54%

Substance: RNA1{m(A)p.r(U)p.m(G)p.r(G)p.m(G)p.r(A)p.m(G)p.r(A)p.m(A)p.r(G)p.m(U)p.r(A)p.m(G)p.r(U)p.m(C)p.r(C)p.m(C)p.r(C)p.r(C)p.r(T)p.r(T)}|RNA2{r(G)p.r(G)p.r(G)p.r(G)p.r(G)p.r(A)p.r(C)p.r(U)p.r(A)p.r(C)p.r(U)p.r(U)p.r(C)p.r(U)p.r(C)p.r(C)p.r(C)p.r(A)p.r(U)p.r(T)p.r(T)}$$$RNA1{StrandType:ss}|RNA2{StrandType:as}$
- target mRNA knockdown: 71%

Substance: RNA1{[lna](G)p.[lna](C)p.[lna](T)p.r(G)p.r(A)p.r(C)p.[lna](C)p.r(C)p.r(U)p.[lna](G)p.r(A)p.r(A)p.r(G)p.[lna](T)p.[lna](T)p.r(C)p.r(A)p.r(U)p.r(C)p.[lna](T)p.[lna](T)}|RNA2{r(G)p.r(A)p.r(U)p.r(G)p.r(A)p.r(A)p.r(C)p.r(U)p.r(U)p.r(C)p.r(A)p.r(G)p.r(G)p.r(G)p.r(U)p.r(C)p.r(A)p.r(G)p.r(C)p.[lna](T)p.[lna](T)}$$$RNA1{StrandType:ss}|RNA2{StrandType:as}$
- target mRNA knockdown: 0%

Substance: RNA1{r(A)p.r(A)p.r(C)p.r(C)p.r(C)p.r(A)p.r(C)p.r(C)p.r(A)p.r(C)p.r(A)p.r(G)p.r(C)p.m(U)p.m(A)p.r(G)p.r(A)p.r(A)p.r(C)p.m(U)p.m(U)}|RNA2{r(A)p.r(A)p.r(G)p.r(U)p.r(U)p.r(C)p.m(U)p.m(A)p.r(G)p.r(C)p.r(U)p.r(G)p.r(U)p.r(G)p.r(G)p.r(U)p.r(G)p.r(G)p.r(G)p.r(U)p.r(U)}$$$RNA1{StrandType:ss}|RNA2{StrandType:as}$
- target mRNA knockdown: 51%

Substance: RNA1{r(G)p.r(G)p.r(G)p.r(A)p.r(G)p.r(G)p.r(A)p.r(U)p.[fl2r](G)p.r(A)p.r(C)p.[fl2r](A)p.r(A)p.r(A)p.r(G)p.r(A)p.r(A)p.r(G)p.r(C)p.r(T)p.r(T)}|RNA2{r(G)p.r(C)p.r(U)p.r(U)p.r(C)p.r(U)p.r(U)p.[fl2r](U)p.r(G)p.r(U)p.r(C)p.r(A)p.r(U)p.r(C)p.r(C)p.r(U)p.r(C)p.r(C)p.r(C)p.r(T)p.r(T)}$$$RNA1{StrandType:ss}|RNA2{StrandType:as}$
- target mRNA knockdown: 84%

Substance: RNA1{r(A)p.r(U)p.r(C)p.r(G)p.r(C)p.[fl2r](U)p.r(G)p.r(C)p.[fl2r](U)p.r(C)p.r(C)p.[fl2r](U)p.r(C)p.r(C)p.r(U)p.r(C)p.r(C)p.r(U)p.r(C)p.r(T)p.r(T)}|RNA2{r(G)p.r(A)p.r(G)p.r(G)p.r(A)p.r(G)p.r(G)p.r(A)p.r(G)p.r(G)p.r(A)p.r(G)p.[fl2r](C)p.r(A)p.r(G)p.r(C)p.r(G)p.r(A)p.r(U)p.r(T)p.r(T)}$$$RNA1{StrandType:ss}|RNA2{StrandType:as}$
- target mRNA knockdown: 69%

Substance: RNA1{r(C)p.r(U)p.r(U)p.r(A)p.r(C)p.r(G)p.r(C)p.r(U)p.r(G)p.r(A)p.r(G)p.r(U)p.r(A)p.r(C)p.r(U)p.r(U)p.r(C)p.r(G)p.r(A)p.r(T)p.r(T)}|RNA2{r(T)p.r(C)p.r(G)p.r(A)p.r(A)p.r(G)p.r(U)p.r(A)p.r(C)p.r(U)p.r(C)p.[lna](A)p.r(G)p.r(C)p.r(G)p.r(U)p.r(A)p.r(A)p.r(G)p.[lna](T)p.[lna](T)}$$$RNA1{StrandType:ss}|RNA2{StrandType:as}$
- target mRNA knockdown: 70% and 94%

Substance: RNA1{r(G)p.r(C)p.r(U)p.r(U)p.r(C)p.r(G)p.r(G)p.r(A)p.r(A)p.r(A)p.r(C)p.r(U)p.r(G)p.r(G)p.r(A)p.[fl2r](C)p.r(A)p.r(U)p.r(C)p.r(T)p.r(T)}|RNA2{r(G)p.r(A)p.[fl2r](U)p.r(G)p.r(U)p.r(C)p.[fl2r](C)p.r(A)p.r(G)p.r(U)p.r(U)p.r(U)p.r(C)p.r(C)p.r(G)p.r(A)p.r(A)p.r(G)p.r(C)p.r(T)p.r(T)}$$$RNA1{StrandType:ss}|RNA2{StrandType:as}$
- target mRNA knockdown: 90%

Substance: RNA1{[fl2r](C)p.r(C)p.[fl2r](C)p.r(U)p.[fl2r](C)p.r(C)p.[fl2r](C)p.r(C)p.[fl2r](U)p.r(G)p.[fl2r](U)p.r(C)p.[fl2r](C)p.r(C)p.[fl2r](C)p.r(G)p.[fl2r](C)p.r(U)p.[fl2r](U)p.r(T)p.r(T)}|RNA2{[fl2r](A)p.[fl2r](A)p.r(G)p.r(C)p.r(G)p.r(G)p.r(G)p.r(G)p.[fl2r](A)p.r(C)p.[fl2r](A)p.r(G)p.r(G)p.r(G)p.r(G)p.[fl2r](A)p.r(G)p.r(G)p.r(G)p.r(T)p.r(T)}$$$RNA1{StrandType:ss}|RNA2{StrandType:as}$
- target mRNA knockdown: 41%

Substance: RNA1{r(C)p.r(G)p.r(U)p.r(A)p.r(C)p.r(G)p.r(C)p.r(G)p.r(G)p.r(A)p.r(A)p.r(U)p.r(A)p.r(C)p.r(U)p.r(U)p.r(C)p.[s4r](G)p.[s4r](A)p.r(T)p.r(T)}|RNA2{r(U)p.r(C)p.r(G)p.r(A)p.r(A)p.r(G)p.r(U)p.r(A)p.r(U)p.r(U)p.r(C)p.r(C)p.r(G)p.r(C)p.r(G)p.r(U)p.r(A)p.r(C)p.r(G)p.r(T)p.r(T)}$$$RNA1{StrandType:ss}|RNA2{StrandType:as}$
- target mRNA knockdown: 95.4%

Substance: RNA1{r(A)p.r(A)p.r(G)p.r(G)p.r(A)p.r(G)p.r(A)p.r(U)p.r(C)p.r(A)p.r(A)p.r(C)p.r(A)p.r(U)p.r(U)p.r(U)p.m(U)p.m(C)p.m(A)p.r(T)p.r(T)}|RNA2{r(U)p.r(G)p.r(A)p.r(A)p.r(A)p.r(A)p.r(U)p.r(G)p.r(U)p.r(U)p.r(G)p.r(A)p.r(U)p.r(C)p.r(U)p.r(C)p.m(C)p.m(U)p.m(U)p.r(T)p.r(T)}$$$RNA1{StrandType:ss}|RNA2{StrandType:as}$
- target mRNA knockdown: 73%

Substance: RNA1{r(C)p.r(U)p.r(U)p.r(A)p.r(C)p.r(G)p.r(C)p.r(U)p.r(G)p.r(A)p.r(G)p.r(U)p.r(A)p.r(C)p.r(U)p.r(U)p.r(C)p.r(G)p.r(A)p.[lna](T)p.[lna](T)}|RNA2{r(U)p.r(C)p.r(G)p.r(A)p.r(A)p.r(G)p.r(U)p.r(A)p.r(C)p.r(U)p.r(C)p.r(A)p.r(G)p.r(C)p.r(G)p.r(U)p.r(A)p.r(A)p.r(G)p.d(T)p.d(T)}$$$RNA1{StrandType:ss}|RNA2{StrandType:as}$
- target mRNA knockdown: 96%

Substance: RNA1{r(A)p.r(U)p.r(C)p.r(U)p.r(G)p.r(A)p.r(A)p.r(G)p.r(A)p.r(A)p.r(G)p.r(G)p.r(A)p.r(G)p.r(A)p.r(A)p.r(A)p.r(A)p.r(A)p.d(T)p.d(T)}|RNA2{r(U)p.r(U)p.r(U)p.r(U)p.r(U)p.r(C)p.r(U)p.r(C)p.r(C)p.r(U)p.r(U)p.r(C)p.r(U)p.r(U)p.r(C)p.r(A)p.r(G)p.r(A)p.r(U)p.d(T)p.d(T)}$$$RNA1{StrandType:ss}|RNA2{StrandType:as}$
- target mRNA knockdown: 95%

Substance: RNA1{m(G)p.r(G)p.m(C)p.r(G)p.m(G)p.r(G)p.m(C)p.r(U)p.m(C)p.r(U)p.m(U)p.r(U)p.m(C)p.r(C)p.m(U)p.r(A)p.m(U)p.r(U)p.m(C)p.r(T)p.r(T)}|RNA2{r(G)p.r(A)p.r(A)p.r(U)p.r(A)p.r(G)p.r(G)p.r(A)p.r(A)p.r(A)p.r(G)p.r(A)p.r(G)p.r(C)p.r(C)p.r(C)p.r(G)p.r(C)p.r(C)p.r(T)p.r(T)}$$$RNA1{StrandType:ss}|RNA2{StrandType:as}$
- target mRNA knockdown: 51%

Substance: RNA1{r(U)p.r(G)p.r(A)p.r(G)p.r(A)p.r(G)p.r(A)p.r(A)p.r(A)p.r(G)p.r(C)p.r(A)p.r(C)p.r(A)p.r(G)p.r(A)p.r(A)p.r(A)p.r(A)p.d(T)p.d(T)}|RNA2{[lna](T)p.r(U)p.r(U)p.r(U)p.r(C)p.r(U)p.r(G)p.r(U)p.r(G)p.r(C)p.r(U)p.r(U)p.r(U)p.r(C)p.r(U)p.r(C)p.r(U)p.r(C)p.r(A)p.[lna](T)p.[lna](T)}$$$RNA1{StrandType:ss}|RNA2{StrandType:as}$
- target mRNA knockdown: 34%

Substance: RNA1{r(C)p.r(U)p.r(A)p.r(A)p.r(G)p.r(G)p.r(A)p.r(C)p.r(C)p.r(U)p.r(A)p.r(A)p.r(C)p.r(A)p.r(A)p.r(A)p.r(G)p.r(U)p.[una](U)p.r(U)p.r(U)}|RNA2{r(A)p.r(A)p.r(C)p.r(U)p.r(U)p.r(U)p.r(G)p.r(U)p.r(U)p.r(A)p.r(G)p.r(G)p.r(U)p.r(C)p.r(C)p.r(U)p.r(U)p.r(A)p.r(G)p.r(U)p.r(U)}$$$RNA1{StrandType:ss}|RNA2{StrandType:as}$
- target mRNA knockdown: 60%

Substance: RNA1{r(A)p.r(G)p.r(A)p.r(G)p.r(A)p.r(G)p.r(G)p.[fl2r](U)p.r(G)p.r(G)p.r(A)p.r(G)p.r(G)p.r(U)p.r(A)p.r(U)p.r(C)p.r(U)p.r(C)p.r(T)p.r(T)}|RNA2{r(G)p.r(A)p.r(G)p.r(A)p.[fl2r](U)p.r(A)p.r(C)p.r(C)p.r(U)p.r(C)p.r(C)p.r(A)p.r(C)p.r(C)p.r(U)p.r(C)p.r(U)p.r(C)p.r(U)p.r(T)p.r(T)}$$$RNA1{StrandType:ss}|RNA2{StrandType:as}$
- target mRNA knockdown: 88%

Substance: RNA1{m(A)p.r(A)p.m(C)p.r(A)p.m(G)p.r(U)p.m(C)p.r(C)p.m(U)p.r(U)p.r(A)p.m(G)p.r(C)p.m(U)p.r(A)p.r(C)p.m(G)p.r(C)p.r(U)p.r(T)p.r(T)}|RNA2{r(A)p.r(G)p.r(C)p.r(G)p.r(U)p.r(A)p.r(G)p.r(C)p.r(U)p.r(A)p.r(A)p.r(G)p.r(G)p.r(A)p.r(C)p.r(U)p.r(G)p.r(U)p.r(U)p.r(T)p.r(T)}$$$RNA1{StrandType:ss}|RNA2{StrandType:as}$
- target mRNA knockdown: 35%

Substance: RNA1{r(A)p.r(C)p.r(G)p.r(U)p.m(C)p.r(A)p.r(C)p.r(C)p.r(G)p.r(A)p.r(G)p.r(G)p.r(A)p.r(G)p.r(A)p.r(A)p.r(G)p.m(U)p.r(A)p.r(T)p.r(T)}|RNA2{r(U)p.r(A)p.r(C)p.r(U)p.r(U)p.r(C)p.r(U)p.r(C)p.r(C)p.r(U)p.r(C)p.r(G)p.r(G)p.m(U)p.r(G)p.r(A)p.r(C)p.r(G)p.r(U)p.r(T)p.r(T)}$$$RNA1{StrandType:ss}|RNA2{StrandType:as}$
- target mRNA knockdown: 48%
